Where “and” joins values, the source holds several entries; their conditions need not be identical. Equal entries are not always repeated. ± gives the expanded uncertainty stated by the source.
Settings: Liquid, Vibrating tube method

CCCCC(=O)OCC(COC(=O)CCCC)(COC(=O)CCCC)COC(=O)CCCC [pentaerythritol tetrapentanoate]
Settings | mass density
343.15 K, 33864 kPa | 1002.5 ± 1.2 kg/m3
343.15 K, 33916 kPa | 1002.5 ± 1.2 kg/m3
343.15 K, 33961 kPa | 1002.5 ± 1.2 kg/m3
343.15 K, 34007 kPa | 1002.5 ± 1.2 kg/m3
343.15 K, 34062 kPa | 1002.6 ± 1.2 kg/m3
343.15 K, 34111 kPa | 1002.5 ± 1.2 kg/m3
343.15 K, 34161 kPa | 1002.6 ± 1.2 kg/m3
343.15 K, 34218 kPa | 1002.7 ± 1.2 kg/m3
343.15 K, 34251 kPa | 1002.6 ± 1.2 kg/m3
343.15 K, 34275 kPa | 1002.8 ± 1.2 kg/m3
343.15 K, 34304 kPa | 1002.7 ± 1.2 kg/m3
343.15 K, 34328 kPa | 1002.8 ± 1.2 kg/m3
343.15 K, 34353 kPa | 1002.7 ± 1.2 kg/m3
343.15 K, 34384 kPa | 1002.7 ± 1.2 kg/m3
343.15 K, 34410 kPa | 1002.8 ± 1.2 kg/m3
343.15 K, 34438 kPa | 1002.7 ± 1.2 kg/m3
343.15 K, 34472 kPa | 1002.8 ± 1.2 kg/m3
343.15 K, 34497 kPa | 1002.9 ± 1.2 kg/m3
343.15 K, 34503 kPa | 1002.9 ± 1.2 kg/m3
343.15 K, 34504 kPa | 1002.8 ± 1.2 kg/m3
343.15 K, 34505 kPa | 1002.9 ± 1.2 kg/m3
343.15 K, 34506 kPa | 1002.8 ± 1.2 kg/m3
343.15 K, 34508 kPa | 1002.8 ± 1.2 kg/m3
343.15 K, 34509 kPa | 1002.8 ± 1.2 kg/m3
343.15 K, 34510 kPa | 1002.9 ± 1.2 kg/m3 and 1002.8 ± 1.2 kg/m3
343.15 K, 34512 kPa | 1002.8 ± 1.2 kg/m3
343.15 K, 34514 kPa | 1002.8 ± 1.2 kg/m3
343.16 K, 412.1 kPa | 978.6 ± 1.2 kg/m3
343.16 K, 441.3 kPa | 978.8 ± 1.2 kg/m3
343.16 K, 470.3 kPa | 978.8 ± 1.2 kg/m3
343.16 K, 495.2 kPa | 978.9 ± 1.2 kg/m3
343.16 K, 522.1 kPa | 978.8 ± 1.2 kg/m3
343.16 K, 556.2 kPa | 979 ± 1.2 kg/m3
343.16 K, 586.3 kPa | 978.8 ± 1.2 kg/m3
343.16 K, 617.4 kPa | 979 ± 1.2 kg/m3
343.16 K, 654 kPa | 979 ± 1.2 kg/m3
343.16 K, 685.5 kPa | 979 ± 1.2 kg/m3
343.16 K, 717.1 kPa | 979 ± 1.2 kg/m3
343.16 K, 781.4 kPa | 979 ± 1.2 kg/m3
343.16 K, 807.8 kPa | 979.1 ± 1.2 kg/m3
343.16 K, 835.6 kPa | 979.2 ± 1.2 kg/m3
343.16 K, 864.6 kPa | 979.2 ± 1.2 kg/m3
343.16 K, 901.1 kPa | 979.2 ± 1.2 kg/m3
343.16 K, 933.9 kPa | 979.2 ± 1.2 kg/m3
343.16 K, 969.2 kPa | 979.2 ± 1.2 kg/m3
343.16 K, 1013.1 kPa | 979.1 ± 1.2 kg/m3
343.16 K, 1049.6 kPa | 979.2 ± 1.2 kg/m3
343.16 K, 1077.9 kPa | 979.4 ± 1.2 kg/m3
343.16 K, 1107.4 kPa | 979.3 ± 1.2 kg/m3
343.16 K, 1133.1 kPa | 979.3 ± 1.2 kg/m3
343.16 K, 1159.9 kPa | 979.4 ± 1.2 kg/m3
343.16 K, 1187.6 kPa | 979.4 ± 1.2 kg/m3
343.16 K, 1223.2 kPa | 979.4 ± 1.2 kg/m3
343.16 K, 1254.5 kPa | 979.4 ± 1.2 kg/m3
343.16 K, 1286.1 kPa | 979.4 ± 1.2 kg/m3
343.16 K, 1325.9 kPa | 979.4 ± 1.2 kg/m3
343.16 K, 1361.3 kPa | 979.5 ± 1.2 kg/m3
343.16 K, 1398.1 kPa | 979.6 ± 1.2 kg/m3
343.16 K, 1437 kPa | 979.8 ± 1.2 kg/m3
343.16 K, 1485.1 kPa | 979.6 ± 1.2 kg/m3
343.16 K, 1528.1 kPa | 979.7 ± 1.2 kg/m3
343.16 K, 1574.3 kPa | 979.7 ± 1.2 kg/m3
343.16 K, 1633.5 kPa | 979.6 ± 1.2 kg/m3
343.16 K, 2223.1 kPa | 980.2 ± 1.2 kg/m3
343.16 K, 2283.6 kPa | 980.2 ± 1.2 kg/m3
343.16 K, 2321.1 kPa | 980.2 ± 1.2 kg/m3
343.16 K, 2385.5 kPa | 980.4 ± 1.2 kg/m3
343.16 K, 2425 kPa | 980.4 ± 1.2 kg/m3
343.16 K, 2459.5 kPa | 980.4 ± 1.2 kg/m3
343.16 K, 2536.9 kPa | 980.4 ± 1.2 kg/m3
343.16 K, 2611.6 kPa | 980.6 ± 1.2 kg/m3
343.16 K, 2873.3 kPa | 980.7 ± 1.2 kg/m3
343.16 K, 2917.7 kPa | 980.7 ± 1.2 kg/m3
343.16 K, 3019.5 kPa | 980.9 ± 1.2 kg/m3
343.16 K, 3175.8 kPa | 980.9 ± 1.2 kg/m3
343.16 K, 3224.4 kPa | 981.1 ± 1.2 kg/m3
343.16 K, 3294.8 kPa | 981.1 ± 1.2 kg/m3
343.16 K, 3352.1 kPa | 981.2 ± 1.2 kg/m3
343.16 K, 3426.6 kPa | 981.2 ± 1.2 kg/m3
343.16 K, 3497.5 kPa | 981.3 ± 1.2 kg/m3

— the NIST ThermoML archive (doi:10.1021/je060271a)
